Laboratory results published in US20130059375A1, “METHOD FOR PREPARING ES CELLS” (RIKEN, priority 2010, published 2013).

System: inner cell mass (ICM) of NOD/SCID mouse
Assay: Inventors' earlier attempts to establish ES cells from NOD/SCID inner cell mass by known methods
Assay type: cell-based
Details: factor(s) in medium
Description: The present inventors have considered that this problem can be solved by establishing an ES cell from an NOD/SCID background mouse and introducing human gene thereinto to generate the human gene-introduced NOD/SCID background mouse. […] Furthermore, an FGF receptor inhibitor, an MEK activation inhibitor and a GSK3 inhibitor were added to the medium according to the method that established an ES cell from an NOD mouse (non-patent document 4).

Substance: ACTH: known peptide hormone consisting of 39 amino acids (SYSMEHFRWGKPVGKKRRPVKVYPNGAEDESAEAFPLEF; Corticotropin; UniProt P01189 138-176, looked up)
- establishment of ES cell: could not establish
